# In ChEMBL document CHEMBL4765295, “Synthesis, pharmacological profile and 2D-QSAR studies of curcumin-amino acid conjugates as potential drug candidates” (Eur J Med Chem, 2020):
# Where “and” joins values, the source holds several entries; their conditions need not be identical. Equal values may be shown once.
# System: Candida albicans
# Test: Antifungal activity against Candida albicans incubated for 18 to 24 hrs by CLSI method
# Format: functional
# Details: time 18-24 hrs
row,MIC,Compound
1,0.5 µg/mL and 0.703 µM,COc1cc(/C=C/C(=O)/C=C(O)/C=C/c2ccc(OC(=O)CCNC(=O)OC(C)(C)C)c(OC)c2)ccc1OC(=O)CCNC(=O)OC(C)(C)C

# System: Streptococcus pyogenes
# Test: Antibacterial activity against Streptococcus pyogenes ATCC 19615 incubated for 18 hrs by agar dilution method
# Format: functional
# Details: not given
row,MIC,Compound
1,0.25 µg/mL and 0.352 µM,COc1cc(/C=C/C(=O)/C=C(O)/C=C/c2ccc(OC(=O)CCNC(=O)OC(C)(C)C)c(OC)c2)ccc1OC(=O)CCNC(=O)OC(C)(C)C

# System: Rattus norvegicus
# Test: Anti-inflammatory activity in Wistar rat assessed as inhibition of carrageenan-induced paw edema at 10 mg/kg, ip pretreated for 1 hr followed by carrageenan challenge and measured after 1 hr relative to control (reference value: 0.00 +/-0.02 %)
# Format: functional
# Details: time 2 hrs
row,Compound,inhibition in vivo at 10 mg/kg [%]
1,COc1cc(/C=C/C(=O)/C=C(O)/C=C/c2ccc(OC(=O)CCNC(=O)OC(C)(C)C)c(OC)c2)ccc1OC(=O)CCNC(=O)OC(C)(C)C,31

# System: Rattus norvegicus
# Test: Anti-inflammatory activity in Wistar rat assessed as inhibition of carrageenan-induced paw edema at 10 mg/kg, ip pretreated for 1 hr followed by carrageenan challenge and measured after 24 hr relative to control (reference value: 0.00 +/-0.3 %)
# Format: functional
# Details: time 25 hrs
row,Compound,inhibition in vivo at 10 mg/kg [%]
1,COc1cc(/C=C/C(=O)/C=C(O)/C=C/c2ccc(OC(=O)CCNC(=O)OC(C)(C)C)c(OC)c2)ccc1OC(=O)CCNC(=O)OC(C)(C)C,28

# System: Rattus norvegicus
# Test: Antiinflammatory activity in Wistar rat model of carrageenan-induced paw edema assessed as reduction in thickness of paw edema at 10 mg/kg, ip pretreated for 1 hr followed by carrageenan challenge and measured after 3 hrs (reference value: 1.79 +/-0.07 mm)
# Format: functional
# Details: time 4 hrs
row,Compound,Activity [mm]
1,COc1cc(/C=C/C(=O)/C=C(O)/C=C/c2ccc(OC(=O)CCNC(=O)OC(C)(C)C)c(OC)c2)ccc1OC(=O)CCNC(=O)OC(C)(C)C,0.99

# System: Splenocyte
# Test: Immunomodulatory activity in Swiss albino mouse splenocytes assessed as cell viability at 10 uM by measuring stimulation index incubated for 72 hrs in presence of mitogenic stimulus phytohaemagglutinin by MTT assay (reference value: 1.00 +/- 0.24)
# Format: functional
# Details: not given
row,Compound,Activity_index
1,COc1cc(/C=C/C(=O)/C=C(O)/C=C/c2ccc(OC(=O)CCNC(=O)OC(C)(C)C)c(OC)c2)ccc1OC(=O)CCNC(=O)OC(C)(C)C,1.7

# System: Peritoneal macrophage
# Test: Antiinflammatory activity in […] mouse Peritoneal macrophages assessed as reduction in LPS-induced NO production by measuring reduction in stimulation index at 10 uM preincubated for 1 hr followed by LPS stimulation measured after 24 hrs by Griess method (reference value: 27.31 +/- 2.56 uM)
# Format: functional
# Details: time 25 hrs
row,Compound,Activity [µM]
1,COc1cc(/C=C/C(=O)/C=C(O)/C=C/c2ccc(OC(=O)CCNC(=O)OC(C)(C)C)c(OC)c2)ccc1OC(=O)CCNC(=O)OC(C)(C)C,18.35

# System: Rattus norvegicus
# Test: Anti-inflammatory activity in Wistar rat assessed as inhibition of carrageenan-induced paw edema at 10 mg/kg, ip pretreated for 1 hr followed by carrageenan challenge and measured after 4 hr relative to indomethacin
# Format: functional
# Details: time 5 hrs
row,Compound,inhibition in vivo at 10 mg/kg [%]
1,COc1cc(/C=C/C(=O)/C=C(O)/C=C/c2ccc(OC(=O)CCNC(=O)OC(C)(C)C)c(OC)c2)ccc1OC(=O)CCNC(=O)OC(C)(C)C,70

# System: Rattus norvegicus
# Test: Anti-inflammatory activity in Wistar rat assessed as inhibition of carrageenan-induced paw edema at 10 mg/kg, ip pretreated for 1 hr followed by carrageenan challenge and measured after 2 hr relative to control (reference value: 0.00 +/-0.03 %)
# Format: functional
# Details: time 3 hrs
row,Compound,inhibition in vivo at 10 mg/kg [%]
1,COc1cc(/C=C/C(=O)/C=C(O)/C=C/c2ccc(OC(=O)CCNC(=O)OC(C)(C)C)c(OC)c2)ccc1OC(=O)CCNC(=O)OC(C)(C)C,33

# System: Rattus norvegicus
# Test: Anti-inflammatory activity in Wistar rat assessed as inhibition of carrageenan-induced paw edema at 10 mg/kg, ip pretreated for 1 hr followed by carrageenan challenge and measured after 3 hr relative to control (reference value: 0.00 +/-0.1 %)
# Format: functional
# Details: time 4 hrs
row,Compound,inhibition in vivo at 10 mg/kg [%]
1,COc1cc(/C=C/C(=O)/C=C(O)/C=C/c2ccc(OC(=O)CCNC(=O)OC(C)(C)C)c(OC)c2)ccc1OC(=O)CCNC(=O)OC(C)(C)C,45

# System: Rattus norvegicus
# Test: Antiinflammatory activity in Wistar rat model of carrageenan-induced paw edema assessed as reduction in thickness of paw edema at 10 mg/kg, ip pretreated for 1 hr followed by carrageenan challenge and measured after 4 hrs (reference value: 1.40 +/-0.10 mm)
# Format: functional
# Details: time 5 hrs
row,Compound,Activity [mm]
1,COc1cc(/C=C/C(=O)/C=C(O)/C=C/c2ccc(OC(=O)CCNC(=O)OC(C)(C)C)c(OC)c2)ccc1OC(=O)CCNC(=O)OC(C)(C)C,0.55

# System: Rattus norvegicus
# Test: Antiinflammatory activity in Wistar rat model of carrageenan-induced paw edema assessed as reduction in thickness of paw edema at 10 mg/kg, ip pretreated for 1 hr followed by carrageenan challenge and measured after 1 hr (reference value: 2.41 +/-0.05 mm)
# Format: functional
# Details: time 1 hr after carrageenan
row,Compound,Activity [mm]
1,COc1cc(/C=C/C(=O)/C=C(O)/C=C/c2ccc(OC(=O)CCNC(=O)OC(C)(C)C)c(OC)c2)ccc1OC(=O)CCNC(=O)OC(C)(C)C,1.66

# System: Peritoneal macrophage
# Test: Antiinflammatory activity in […] mouse Peritoneal macrophages assessed as inhibition of LPS-induced NO production at 10 uM preincubated for 1 hr followed by LPS stimulation measured after 24 hrs by Griess method relative to control (reference value: 0.0 %)
# Format: functional
# Design: scale not given: the % may be the effect or the level left
# Details: time 25 hrs
row,Compound,Activity [%]
1,COc1cc(/C=C/C(=O)/C=C(O)/C=C/c2ccc(OC(=O)CCNC(=O)OC(C)(C)C)c(OC)c2)ccc1OC(=O)CCNC(=O)OC(C)(C)C,32.81

# System: Pseudomonas aeruginosa
# Test: Antibacterial activity against Pseudomonas aeruginosa ATCC 27853 incubated for 18 hrs by agar dilution assay
# Format: functional
# Details: not given
row,MIC,Compound
1,0.25 µg/mL and 0.352 µM,COc1cc(/C=C/C(=O)/C=C(O)/C=C/c2ccc(OC(=O)CCNC(=O)OC(C)(C)C)c(OC)c2)ccc1OC(=O)CCNC(=O)OC(C)(C)C

# System: Rattus norvegicus
# Test: Anti-inflammatory activity in Wistar rat assessed as inhibition of carrageenan-induced paw edema at 10 mg/kg, ip pretreated for 1 hr followed by carrageenan challenge and measured after 4 hr relative to control (reference value: 0.00 +/-0.4 %)
# Format: functional
# Details: time 5 hrs
row,Compound,inhibition in vivo at 10 mg/kg [%]
1,COc1cc(/C=C/C(=O)/C=C(O)/C=C/c2ccc(OC(=O)CCNC(=O)OC(C)(C)C)c(OC)c2)ccc1OC(=O)CCNC(=O)OC(C)(C)C,61

# System: Splenocyte
# Test: Immunomodulatory activity in Swiss albino mouse splenocytes assessed as cell viability at 10 uM by measuring inhibition of stimulation index incubated for 72 hrs in presence of mitogenic stimulus phytohaemagglutinin by MTT assay relative to indomethacin
# Format: functional
# Details: read-out: Activity
row,Compound,viability at 10 µM [%]
1,COc1cc(/C=C/C(=O)/C=C(O)/C=C/c2ccc(OC(=O)CCNC(=O)OC(C)(C)C)c(OC)c2)ccc1OC(=O)CCNC(=O)OC(C)(C)C,71.1

# System: Salmonella typhimurium
# Test: Antibacterial activity against Salmonella typhimurium ATCC 19430 incubated for 18 hrs by agar dilution assay
# Format: functional, Salmonella enterica subsp. enterica serovar Typhimurium
# Details: Salmonella enterica
row,MIC,Compound
1,0.5 µg/mL and 0.703 µM,COc1cc(/C=C/C(=O)/C=C(O)/C=C/c2ccc(OC(=O)CCNC(=O)OC(C)(C)C)c(OC)c2)ccc1OC(=O)CCNC(=O)OC(C)(C)C

# System: Rattus norvegicus
# Test: Antiinflammatory activity in Wistar rat model of carrageenan-induced paw edema assessed as reduction in thickness of paw edema at 10 mg/kg, ip pretreated for 1 hr followed by carrageenan challenge and measured after 2 hrs (reference value: 2.06 +/-0.09 mm)
# Format: functional
# Details: time 3 hrs
row,Compound,Activity [mm]
1,COc1cc(/C=C/C(=O)/C=C(O)/C=C/c2ccc(OC(=O)CCNC(=O)OC(C)(C)C)c(OC)c2)ccc1OC(=O)CCNC(=O)OC(C)(C)C,1.38

# System: Rattus norvegicus
# Test: Antiinflammatory activity in Wistar rat model of carrageenan-induced paw edema assessed as reduction in thickness of paw edema at 10 mg/kg, ip pretreated for 1 hr followed by carrageenan challenge and measured after 24 hrs (reference value: 0.83 +/-0.08 mm)
# Format: functional
# Details: time 25 hrs
row,Compound,Activity [mm]
1,COc1cc(/C=C/C(=O)/C=C(O)/C=C/c2ccc(OC(=O)CCNC(=O)OC(C)(C)C)c(OC)c2)ccc1OC(=O)CCNC(=O)OC(C)(C)C,0.6

# System: Staphylococcus aureus
# Test: Antibacterial activity against Staphylococcus aureus ATCC 25923 incubated for 18 hrs by agar dilution method
# Format: functional
# Details: not given
row,MIC,Compound
1,0.25 µg/mL and 0.352 µM,COc1cc(/C=C/C(=O)/C=C(O)/C=C/c2ccc(OC(=O)CCNC(=O)OC(C)(C)C)c(OC)c2)ccc1OC(=O)CCNC(=O)OC(C)(C)C
